Biological target: T1, human CTPS1 (Homo sapiens, UniProt P17812)
T1 construct: FLAG (with GG linker); His8 (with GG linker); purchased Proteros biostructures GmbH
T1 sequence (P17812 1-591): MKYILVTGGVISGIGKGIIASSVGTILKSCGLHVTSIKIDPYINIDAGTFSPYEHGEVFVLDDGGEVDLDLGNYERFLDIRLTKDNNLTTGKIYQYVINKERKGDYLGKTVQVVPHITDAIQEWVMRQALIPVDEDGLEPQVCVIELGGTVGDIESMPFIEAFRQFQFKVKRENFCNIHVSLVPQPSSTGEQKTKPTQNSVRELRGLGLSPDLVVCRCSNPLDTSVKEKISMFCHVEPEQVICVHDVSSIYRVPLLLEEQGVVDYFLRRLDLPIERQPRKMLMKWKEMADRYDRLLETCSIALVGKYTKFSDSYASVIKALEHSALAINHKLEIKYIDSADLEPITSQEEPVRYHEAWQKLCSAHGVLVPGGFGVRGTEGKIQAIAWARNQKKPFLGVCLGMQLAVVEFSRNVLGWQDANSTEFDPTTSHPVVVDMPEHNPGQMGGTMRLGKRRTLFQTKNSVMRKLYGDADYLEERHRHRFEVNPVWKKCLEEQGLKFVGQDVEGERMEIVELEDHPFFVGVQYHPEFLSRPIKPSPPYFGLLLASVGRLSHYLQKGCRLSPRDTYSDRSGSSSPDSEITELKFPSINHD
Experiment: RapidFire/MS-based enzyme selectivity assay (human CTPS1 versus CTPS2), CTPS1 isoform
Assay type: biochemical
Outline: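 Full-length C-terminal FLAG-His-tagged CTPS1 (1-591) was preincubated 10 min at 25 °C with compound in HEPES pH 8.0 buffer with MgCl2, KCl, DTT and Tween-20. Reactions were started with a 2× mix of ATP 0.3 mM, UTP 0.2 mM, GTP 0.07 mM and L-glutamine 0.1 mM, and run in the linear phase at 25 °C. IC50 comes from the RapidFire-MS ratio of CTP to 13C9-15N3-CTP.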

[1] = Table 16, human CTPS1 over human CTPS2, RapidFire/MS IC50 values
[2] = RapidFire/MS IC50 values of CTPS1 and CTPS2, Table 15
[3] = RapidFire/MS IC50 values of CTPS1 and CTPS2, Table 17

Compound | Selectivity (fold selectivity between CTPS1 and CTPS2) [2] | other results
CCOc1cncc(-c2ccc(C(=O)NC(C)(C)c3csc(NS(=O)(=O)C4CC4)n3)nc2)n1 [R26, N-(2-(2-(cyclopropanesulfon-amido)thiazol-4-yl)propan-2-yl)-5-(6-ethoxypyrazin-2-yl)picolinamide] | – | Selectivity (fold selectivity between CTPS1 and CTPS2) [1]: +++ (>60 fold (+++))
CCOc1cncc(-c2ccc(NC(=O)C(CC)c3cncc(NS(=O)(=O)C4CC4)n3)cc2)n1 (stereo not shown) [P202, 2-(6-(cyclopropanesulfonamido)pyrazin-2-yl)-N-(4-(6-ethoxypyrazin-2-yl)phenyl)butanamide] | +++ (>60 fold (+++)) | –
CCOc1cncc(-c2ccc(NC(=O)C(C)(C)c3nc(NS(=O)(=O)C4CC4)ncc3C)cc2)n1 [P70, 2-(2-(cyclopropanesulfonamido)-5-methylpyrimidin-4-yl)-N-(4-(6-ethoxypyrazin-2-yl)phenyl)-2-methylpropanamide] | + (2-30 fold (+)) | –
Cc1cc(-c2cncc(C(F)(F)F)n2)ccc1C(=O)NC(C)(C)c1csc(NS(=O)(=O)C2CC2)n1 [R45, N-(2-(2-(cyclopropanesulfonamido)thiazol-4-yl)propan-2-yl)-2-methyl-4-(6-(trifluoromethyl)pyrazin-2-yl)benzamide] | – | Selectivity (fold selectivity between CTPS1 and CTPS2) [1]: ++ (>30-60 fold (++))
CCOc1cncc(-c2ccc(NC(=O)C(CCOC)c3ccnc(NS(=O)(=O)C4CC4)n3)c(F)c2)n1 (stereo not shown) [P146, 2-(2-(cyclopropanesulfonamido)pyrimidin-4-yl)-N-(4-(6-ethoxypyrazin-2-yl)-2-fluorophenyl)-4-methoxybutanamide] | +++ (>60 fold (+++)) | –
CCC(C(=O)Nc1ccc(-c2cncc(C(F)(F)F)n2)cc1)c1ccnc(NS(=O)(=O)C2CC2)n1 (stereo not shown) [P103, 2-(2-(cyclopropanesulfonamido)pyrimidin-4-yl)-N-(4-(6-(trifluoromethyl)pyrazin-2-yl)phenyl)butanamide] | + (2-30 fold (+)) | –
CC(C)Oc1cncc(-c2ccc(NC(=O)C(C)(C)c3ccnc(NS(=O)(=O)C4CC4)n3)c(F)c2)n1 [P39] | + (2-30 fold (+)) | –
CCOc1cncc(-c2ccc(NC(=O)C(F)(CC)c3cncc(NS(=O)(=O)C4CC4)n3)nc2)n1 (stereo not shown) [P200, 2-(6-(cyclopropanesulfonamido)pyrazin-2-yl)-N-(5-(6-ethoxypyrazin-2-yl)pyridin-2-yl)-2-fluorobutanamide] | ++ (>30-60 fold (++)) | –
CC(C)Oc1cncc(-c2ccc(NC(=O)C(C)(C)c3ccnc(NS(=O)(=O)C4CC4)n3)nc2)n1 [P9, 2-(2-(cyclopropanesulfonamido)pyrimidin-4-yl)-N-(5-(6-isopropoxypyrazin-2-yl)pyridin-2-yl)-2-methylpropanamide] | +++ (>60 fold (+++)) | –
CCC(C(=O)Nc1ccc(-c2cncc(OCC(F)(F)F)n2)cc1)c1ccnc(NS(=O)(=O)C2CC2)n1 (stereo not shown) [P108, 2-(2-(cyclopropanesulfonamido)pyrimidin-4-yl)-N-(4-(9-(2,2,2-trifluoroethoxy)pyrazin-2-yl)phenyl)butanamide] | +++ (>60 fold (+++)) | –
CCOc1cncc(-c2ccc(NC(=O)C(CC)c3ccnc(NS(=O)(=O)C4CC4)n3)cc2)n1 (stereo not shown) [P105, 2-(2-(cyclopropanesulfonamido)pyrimidin-4-yl)-N-(4-(6-ethoxypyrazin-2-yl)phenyl)butanamide] | ++ (>30-60 fold (++)) | –
CCC(CC)(NC(=O)c1ccc(-c2cncc(C(F)(F)F)n2)cc1)c1csc(NS(=O)(=O)C2CC2)n1 [R19, N-(3-(2-(cyclopropanesulfon-amido)thiazol-4-yl)pentan-3-yl)-4-(6-(trifluoromethyl)pyrazin-2-yl)benzamide] | – | Selectivity (fold selectivity between CTPS1 and CTPS2) [1]: ++ (>30-60 fold (++))
CCC(C(=O)Nc1ccc(-c2cncc(OC)n2)cc1F)c1ccnc(NS(=O)(=O)C2CC2)n1 (stereo not shown) [P95, 2-(2-(cyclopropanesulfonamido)pyrimidin-4-yl)-N-(2-fluoro-4-(6-methoxypyrazin-2-yl)phenyl)butanamide] | + (2-30 fold (+)) | –
CCC(NC(=O)c1ccc(-c2cncc(F)c2)cc1)c1csc(NS(=O)(=O)C2CC2)n1 (single isomer, unassigned) [R69, N-(1-(2-(cyclopropanesulfon-amido)thiazol-4-yl)propyl)-4-(5-fluoropyridin-3-yl)benzamide] | – | Selectivity (fold selectivity between CTPS1 and CTPS2) [1]: +++ (>60 fold (+++))
CCOc1cncc(-c2ccc(NC(=O)C(C)(C)c3nc(NS(=O)(=O)C4CC4)ncc3F)cc2)n1 [P68, 2-(2-(cyclopropanesulfonamido)-5-fluropyrimidin-4-yl)-N-(4-(9-ethoxypyrazin-2-yl)phenyl)-2-methylpropanamide] | ++ (>30-60 fold (++)) | –
CCOc1cncc(-c2ccc(C(=O)NC(CC)c3ccnc(NS(=O)(=O)C4CC4)n3)c(F)c2)n1 (stereo not shown) [P216, N-(1-(2-(cyclopropanesulfonamido)pyrimidin-4-yl)propyl)-4-(6-ethoxypyrazin-2-yl)-2-fluorobenzamide] | +++ (>60 fold (+++)) | –
CCOc1cncc(-c2ccc(NC(=O)C3(c4cncc(NS(=O)(=O)C5CC5)n4)CCOCC3)nc2)n1 [P197, 4-(6-(cyclopropanesulfonamido)pyrazin-2-yl)-N-(5-(6-ethoxypyrazin-2-yl)pyridin-2-yl)tetrahydro-2H-pyran-4-carboxmaide] | +++ (>60 fold (+++)) | –
CCOc1cncc(-c2ccc(NC(=O)C3(c4ccnc(NS(=O)(=O)N(C)C)n4)CCOCC3)nc2)n1 [P248] | – | Selectivity (fold selectivity between CTPS1 and CTPS2) [3]: +++ (>60 fold (+++))
CCC(C(=O)Nc1ncc(-c2cncc(OC)n2)cc1F)c1ccnc(NS(=O)(=O)C2CC2)n1 (stereo not shown) [P158, 2-(2-(cyclopropanesulfonamido)pyrimidin-4-yl)-N-(3-fluoro-5-(6-methoxypyrazin-2-yl)pyridin-2-yl)butanamide] | + (2-30 fold (+)) | –
CCOc1cncc(-c2ccc(NC(=O)C(F)(CC)c3ccnc(NS(=O)(=O)C4CC4)n3)nc2)n1 (single isomer, unassigned) [P114, 2-(2-(Cyclopropanesulfonamido)pyrimidin-4-yl)-N-(5-(6-ethoxypyrazin-2-yl)pyridin-2-yl)-2-fluorobutanamide] | +++ (>60 fold (+++)) | –
CCC(C(=O)Nc1ccc(-c2cncc(Cl)c2)cc1)c1ccnc(NS(=O)(=O)C2CC2)n1 (stereo not shown) [P1, N-(4-(5-Chloropyridin-3-yl)phenyl)-2-(2-(cyclopropanesulfonamido)pyrimidin-4-yl)butanamide] | + (2-30 fold (+)) | –
CCOc1cncc(-c2ccc(NC(=O)C3(c4ccnc(NS(=O)(=O)C5CC5)n4)CCN(S(C)(=O)=O)CC3)nc2)n1 [P251] | – | Selectivity (fold selectivity between CTPS1 and CTPS2) [3]: +++ (>60 fold (+++))
CCOc1cncc(-c2ccc(C(=O)NC(CC)c3csc(NS(=O)(=O)C4CC4)n3)c(F)c2)n1 (single isomer, unassigned) [R71, N-(1-(2-(cyclopropanesulfon-amido)thiazol-4-yl)propyl)-4-(6-ethoxypyrazin-2-yl)-2-fluorobenzamide] | – | Selectivity (fold selectivity between CTPS1 and CTPS2) [1]: +++ (>60 fold (+++))
CCC(C(=O)Nc1ccc(-c2cncc(C(F)(F)F)n2)cn1)c1ccnc(NS(=O)(=O)C2CC2)n1 (stereo not shown) [P87, 2-(2-(cyclopropanesulfonamido)pyrimidin-4-yl)-N-(5-(6-(trifluoromethyl)pyrazin-2-yl)pyridin-2-yl)butanamide] | ++ (>30-60 fold (++)) | –
CCOc1cncc(-c2ccc(C(=O)NC(CCOC)c3csc(NS(=O)(=O)C4CC4)n3)c(F)c2)n1 (single isomer, unassigned) [R93, N-(1-(2-(cyclopropanesulfon-amido)thiazol-4-yl)-3-methoxypropyl)-4-(6-ethoxypyrazin-2-yl)-2-fluorobenzamide] | – | Selectivity (fold selectivity between CTPS1 and CTPS2) [1]: +++ (>60 fold (+++))
CCOc1cncc(-c2ccc(NC(=O)C(F)(CC)c3cncc(NS(=O)(=O)C4CC4)n3)nc2)n1 (single isomer, unassigned) [P207, 2-(6-(cyclopropanesulfonamido)pyrazin-2-yl)-N-(5-(6-ethoxypyrazin-2-yl)pyridin-2-yl)-2-fluorobutanamide] | + (2-30 fold (+)) | –
CC(C)(NC(=O)c1ccc(-c2cncc(C(F)(F)F)n2)cc1)c1nc(NS(=O)(=O)C2CC2)sc1Cl [R79, N-(2-(5-chloro-2-(cycloprop-anesulfonamido)thiazol-4-yl)propan-2-yl)-4-(6-(trifluoromethyl)pyrazin-2-yl)benzamide] | – | Selectivity (fold selectivity between CTPS1 and CTPS2) [1]: + (2-30 fold (+))
CC(C)(C(=O)Nc1ccc(-c2cccnc2)cc1)c1ccnc(NS(=O)(=O)C2CC2)n1 [P59, 2-(2-(cyclopropanesulfonamido)pyrimidin-4-yl)-2-methyl-N-(4-(pyridin-3-yl)phenyl)propanamide] | + (2-30 fold (+)) | –

Source: patent US20230086703A1, “N-(4-(5-chloropyridin-3-yl)phenyl)-2-(2-(cyclopropanesulfonamido)pyrimidin-4-yl) butanamide derivatives and related compounds as human CTPS1 inhibitors for the treatment of proliferative diseases” (Step Pharma S.A.S., priority 2019, published 2023)
